Assay results reported in US9771394B2, “Antimicrobial polymyxins for treatment of bacterial infections” (priority 2014, dated 2017).
Values joined by “and” are separate entries in the source; they are usually repeats but may differ in a detail not shown here. Equal entries are not always repeated. Where two headings read alike, the source gives them in different places. Marks after values point to notes of the source that are not given here. Starred links: 1 amine or outer side, 2 acyl side, 3 side chain; linkers in the order of their positions; H or OH if unused. Positions of bridges follow the written chain, without caps; N, C: chain ends. Non-standard residues stand in square brackets, D forms with d. Residues, ends and D or L forms follow the SMILES beside them. ξ: configuration not given here. *: point of attachment. Thr(3ξ) = CC(O)[C@H](N)C(=O)O; Suc = O=C(CCC(=O)[*:2])[*:1]; X2 = CCCC(C)OC(=O)CCC(=O)*; X5 = CCCCOP(=O)(O)CC(=O)*; Dab = NCC[C@H](N)C(=O)O

Key:
E. coli = E. coli septicemia (systemic) mouse model, IV dosing; type: in vivo, Escherichia coli; conditions: PMB values are side-by-side comparator; for number (A) of surviving animals out of total (B) mice, A/B: at 5 mg/kg
Text: (§1) A lower ED50 value indicates a higher therapeutic efficacy of the drug. The number of surviving animals (from the total number of infected animals used at a given drug dose) is another indicator of efficacy. […] In thigh and lung infection models, a greater reduction in the bacterial colony-forming units (CFU) indicates stronger beneficial therapeutic effect (more bacterial eradication), while a lower CFU reduction or an increase in CFU value indicates a lower effect (less bacterial eradication), or an absence of the therapeutic effect.

P. aeruginosa [1] = assay: P. aeruginosa lung infection (pneumonia) mouse model, SC dosing; type: in vivo, Pseudomonas aeruginosa; conditions: for Relative CFU count, vs. PMB: mouse lung infection, 10 mg/kg; for P. aeruginosa Lung infection model ΔlogCFU at 10 mg/kg: mouse, CFU change at 24 h vs starting inoculum
Text: as §1

E. coli WECO 1003 = type: cell-based, Escherichia coli
Text: (§2) In vitro activity of compounds provided herein may be assessed by standard testing procedures such as the determination of minimum inhibitory concentration (MIC, μg/mL) just as described in “Methods for Dilution Antimicrobial Susceptibility Tests for Bacteria That Grow Aerobically; Approved Standard—Ninth Edition,” published in 2012 by the Clinical and Laboratory Standards Institute, Wayne, Pa., USA. Thus, bacterial colonies grown overnight on Mueller-Hinton Agar plate were selected and suspended in sterile saline to a turbidity of about 80% transmittance, as measured by a spectrophotometer. The suspension was diluted 200-fold with cation-adjusted Mueller-Hinton broth to serve as the inoculum for testing. Two-fold serial dilutions of the test compound were performed in 96-well master plate to arrive at desired concentration. Samples of 10 microliter from each well of the master plate were transferred into respective wells of 96-well assay plate. Bacterial inoculum (90 microliter) was introduced into each well of the assay plate. The assay plate was placed in the incubator at 35° C. for about 24 h (without agitation) followed by the MIC determination. MIC values were determined based on the presence or absence of bacterial growth in wells at the given test agent concentration. MIC value is defined as the lowest concentration of test antibiotic that prevents visible bacterial growth.
(§3) The useful activity of exemplary compounds described herein against Gram-negative pathogens Pseudomonas aeruginosa, Escherichia coli, or Klebsiela pneumoniae is illustrated by the MIC data of Table 1.

[2] = Stability in human plasma at 37° C.; type: in vitro ADME
Description: Exemplary compounds of this invention were tested for stability in human plasma at 37° C., replicating in vivo conditions of mammalian blood. Plasma stability for select compounds was performed as follows. Human plasma (K2 EDTA) was obtained from Bioreclamation. The assay was carried out in 96-well microtiter plates. Test compounds were incubated in duplicate at 37° C. in the presence of plasma. Reaction mixtures (25 μL) contained a final concentration of 25 μM test compound. The extent of metabolism was calculated as the disappearance of the test compound over time. Eucatropine was included as a positive control to verify assay performance. At each given time point, 100 μL of quench solution (100% MeCN with 0.1% HCOOH) with internal standard was transferred to each well. Plates were sealed, vortexed, and centrifuged at 4° C. for 15 minutes at 4,000 rpm. The supernatant was transferred to fresh plates for LC/MS/MS analysis. The formation of a potential metabolite was monitored in all samples. The samples were analyzed on LC/MS/MS using an AB Sciex API 4000 instrument, coupled to a Shimadzu LC-20AD LC Pump system. Analytical samples were separated using a Waters Atlantis T3 dC18 reverse phase HPLC column (20 mm×2.1 mm) at […] a flow rate of 0.5 mL/min, eluting with 0.1% aq. HCOOH and 0.1% HCOOH in MeCN (using gradient from 2% to 98% of the latter). Remaining test compounds were quantified via MS/MS ion current.

K. pneumoniae KPN1004 = type: cell-based, Klebsiela pneumoniae
Text: as §2, §3

P. aeruginosa [3] = assay: P. aeruginosa thigh infection mouse model, IV dosing; type: in vivo, Pseudomonas aeruginosa; conditions: CFU change at 12 h vs no treatment control, PMB values in parenthesis side-by-side
Text: as §1

P. aeruginosa PAE 1001 = type: cell-based, Pseudomonas aeruginosa
Text: as §2, §3

human HK-2 cell = assay: Human HK-2 cell cytotoxicity assay (in vitro nephrotoxicity); type: cell-based
Text: (§4) Nephrotoxicity of polymyxins could be determined in vitro using human renal […] (HK-2) cytotoxicity assay, analogously to that described, for example, by Keirstead et al. in Toxicol. Sci., 2014, vol. 137, pp. 278-291. In vivo, nephrotoxicity could be determined using urine biomarker assays, such as clinically validated neutrophil gelatinase-associated lipocalin (NGAL) assay described, for example by Devarajan in Scand. J. Clin. Lab. Invest. Suppl., 2008, vol. […], pp. 89-94.

[4] = test system: Gram-negative pathogens Pseudomonas aeruginosa, Escherichia coli, or Klebsiela pneumoniae; assay: MIC, Gram-negative panel of Table 1; type: cell-based
Text: In vitro activity of compounds provided herein may be assessed by standard testing procedures such as the determination of minimum inhibitory concentration (MIC, μg/mL) just as described in “Methods for Dilution Antimicrobial Susceptibility Tests for Bacteria That Grow Aerobically; Approved Standard—Ninth Edition,” published in 2012 by the Clinical and Laboratory Standards Institute, Wayne, Pa., USA. Thus, bacterial colonies grown overnight on Mueller-Hinton Agar plate were selected and suspended in sterile saline to a turbidity of about 80% transmittance, as measured by a spectrophotometer. The suspension was diluted 200-fold with cation-adjusted Mueller-Hinton broth to serve as the inoculum for testing. Two-fold serial dilutions of the test compound were performed in 96-well master plate to arrive at desired concentration. Samples of 10 microliter from each well of the master plate were transferred into respective wells of 96-well assay plate. Bacterial inoculum (90 microliter) was introduced into each well of the assay plate. The assay plate was placed in the incubator at 35° C. for about 24 h (without agitation) followed by the MIC determination. MIC values were determined based on the presence or absence of bacterial growth in wells at the given test agent concentration. MIC value is defined as the lowest concentration of test antibiotic that prevents visible bacterial growth. […]

[5] = test system: neutrophil gelatinase-associated lipocalin (NGAL); assay: Rat urine NGAL biomarker assay (in vivo nephrotoxicity); conditions: repeated dose, 25 mg/kg/day QID, SC, Low = signal similar to the background
Text: as §4

[6] = 35° C., about 24 h, cation-adjusted Mueller-Hinton broth

Molecule | Relative CFU count, vs. PMB (P. aeruginosa [1]) | P. aeruginosa Lung infection model ΔlogCFU at 10 mg/kg (P. aeruginosa [1]) | Antibacterial activity (MIC) E. coli WECO 1003 (E. coli WECO 1003; WECO 1003, 24 h) | Antibacterial activity (MIC) K. pneumoniae KPN1004 (K. pneumoniae KPN1004; KPN1004, 24 h) | P. aeruginosa Thigh model, IV dosing ΔlogCFU at 5 mg/kg (P. aeruginosa [3]) | Antibacterial activity (MIC) P. aeruginosa PAE 1001 (P. aeruginosa PAE 1001; PAE 1001, 24 h) | HK-2 cytotoxicity class (human HK-2 cell) | IC50 (human HK-2 cell) | Antibacterial activity (MIC) E. coli WECO 1003 (E. coli WECO 1003; [6]) | Antibacterial activity (MIC) K. pneumoniae KPN1004 (K. pneumoniae KPN1004; [6]) | Antibacterial activity (MIC) P. aeruginosa PAE 1001 (P. aeruginosa PAE 1001; [6]) | also measured
CCCC(C)OC(=O)CCC(=O)N[C@@H](CCN)C(=O)N[C@H](C(=O)N[C@@H](CCN)C(=O)N[C@H]1CCNC(=O)[C@H](C(C)O)NC(=O)[C@H](CCN)NC(=O)[C@H](CCN)NC(=O)[C@H](CC(C)C)NC(=O)[C@@H](Cc2ccccc2)NC(=O)[C@H](CCN)NC1=O)C(C)O (stereo partly shown) [Example 18] (X2-[Dab][Thr(3ξ)][Dab][Dab][Dab][dF]L[Dab][Dab][Thr(3ξ)]; lactam 4-C) | 4.8 × 10^−6 | −2.70 | 2 µg/mL | 4 µg/mL | −1.29 | 2 µg/mL | Class 4 | > 200 µM | – | – | – | E. coli Systemic model, IV dosing ED50 (E. coli): 7.5 mg/kg; number (A) of surviving animals out of total (B) mice, A/B (E. coli): 3/6; remaining at 1 h, 25 μM ([2]; human, plasma): 66%; remaining at 4 h, 25 μM ([2]; human, plasma): 18%
CC(C)C[C@@H]1NC(=O)[C@@H](Cc2ccccc2)NC(=O)[C@H](CCN)NC(=O)[C@@H](NC(=O)[C@H](CCN)NC(=O)[C@@H](NC(=O)[C@H](CCN)NC(=O)CCC(=O)O)C(C)O)CCNC(=O)[C@H](C(C)O)NC(=O)[C@H](CCN)NC(=O)[C@H](CCN)NC1=O (stereo partly shown) [Example 19] (Suc-[Dab][Thr(3ξ)][Dab][Dab][Dab][dF]L[Dab][Dab][Thr(3ξ)]; lactam 4-C) | – | – | >32 µg/mL | >32 µg/mL | −0.14 | 4 µg/mL | Class 4 | > 200 µM | – | – | – | antibacterial activity in words (MIC, Table 1) ([4]; Example 19: against two Gram-negative pathogens in the test): essentially inactive
CCCCOP(=O)(O)CC(=O)N[C@@H](CCN)C(=O)N[C@H](C(=O)N[C@@H](CCN)C(=O)N[C@H]1CCNC(=O)[C@H](C(C)O)NC(=O)[C@H](CCN)NC(=O)[C@H](CCN)NC(=O)[C@H](CC(C)C)NC(=O)[C@@H](Cc2ccccc2)NC(=O)[C@H](CCN)NC1=O)C(C)O (stereo partly shown) [Example 33] (X5-[Dab][Thr(3ξ)][Dab][Dab][Dab][dF]L[Dab][Dab][Thr(3ξ)]; lactam 4-C) | – | – | – | – | – | – | – | – | 8 µg/mL | 8 µg/mL | 8 µg/mL | fold less active than polymyxin B comparator (MIC) ([4]; vs polymyxin B): about 2 fold
polymyxin B [reference compound] | 1 | +2.61 | – | – | – | – | – | – | 2-4^a μg/mL | 2-4^a μg/mL | 2-4^a μg/mL | E. coli Systemic model, IV dosing ED50 (E. coli; listed as PMB): 4.6 mg/kg and 3.9 mg/kg and 2.5 mg/kg; E. coli Systemic model, IV dosing ED50 (E. coli; listed as Polymyxin B (PMB)): 4 to 7 mg/kg; number (A) of surviving animals out of total (B) mice, A/B (E. coli; listed as PMB): 2/6 and 5/6 and 3/6; Compound remaining, % T = 1.0 h ([2]; human plasma, 37° C., 25 μM, 1.0 h): 100^a^ %; Compound remaining, % T = 4.0 h ([2]; human plasma, 37° C., 25 μM, 4.0 h): 100^a %; P. aeruginosa Thigh model, IV dosing ΔlogCFU at 5 mg/kg (P. aeruginosa [3]; listed as Polymyxin B (PMB)): −1.49 to −3.33; In vivo: rat urine biomarker NGAL [5]: High: above detection; HK-2 cytotoxicity class (human HK-2 cell; HK-2 cytotoxicity, Eurofins Cerep): Class 1; IC50 (human HK-2 cell; HK-2 cytotoxicity, Eurofins Cerep, read-out: In vitro: human HK-2 cell assay IC50): 82 µM
